Test results taken from US20120258960A1, “NOVEL MULTIFUNCTIONAL PEPTIDASE INHIBITORS, ESPECIALLY FOR MEDICAL USE” (IMTM GMBH, priority 2009, published 2012).

Columns and labels:
Sprague-Dawley rats = test: Infarct volume after transient focal cerebral ischemia (endothelin 1-induced middle cerebral artery occlusion, eMCAO); type: in vivo; conditions: cortex, 7 days after eMCAO, % of vehicle control (100%), mean ± S.E.M.; 2 μl of 10 mmol/l intracerebroventricularly during ischemia, 6 and 24 h after reperfusion
Procedure: Studies were performed on male Sprague-Dawley rats (250 to 280 g) obtained from Harlan Winkelmann (Borchen, Germany). The animals were maintained under constant environmental conditions with ambient temperature of 21±2° C. and relative humidity of 40%. They were housed with a 12-h light-dark cycle and given food and water ad libitum.
For stock solution of the compounds, a compound determined for use in the study (25 mmol) was dissolved in dimethyl sulfoxide (DMSO, SigmaAldrich, Germany) and diluted with 0.1 M phosphate buffer saline (PBS, pH 7.4) to a final volume of 10 mmol/l. 2 μl of a 10 mmol/l test compound PBS/DMSO solution was administered intra-cerebroventricularly at different time points after the induction of transient focal cerebral ischemia. If not otherwise stated, all other chemicals were of highest available purity.
The procedure for the induction of transient focal cerebral ischemia by occlusion of the middle cerebral artery via microinjection of endothelin 1 adjacent to the middle cerebral artery was modified from that published previously by Sharkey and Butcher, 1995. Anesthesia was induced with halothane in a mixture of nitrous oxide/oxygen (70:30, v/v) and maintained with 2 to 3% halothane during the following procedures. Rats were placed in a Kopf stereotaxic frame and further anesthetized via nose cone. For the induction of focal cerebral ischemia, a burr hole was drilled (1 mm diameter) into the skull (coordinates: anterior 0.90 mm from bregma, lateral 5.2 mm to satura sagittalis), and the dura was carefully opened. A 29-gauge cannula was lowered 7.5 mm below the dura according to the rat brain atlas of Paxinos and Watson (31). To induce occlusion of the middle cerebral artery, rats received an injection of […] of endothelin 1 (ED-1, Sigma-Aldrich) in 3 μl of 0.1 M phosphate-buffered saline, pH 7.4, over a time period of 5 min. After a further 5 min, the cannula was slowly withdrawn.
For intracerebroventricular application of the compounds selected, a second burr hole was drilled into the skull (coordinates: posterior 0.80 mm from bregma, lateral 1.5 mm to satura sagittalis), and a second 29-gauge cannula was lowered 4.5 mm below the dura. Intracerebroventricular applications of selected compounds (2 μl of a 10 mmol/l PBS/DMSO solution, pH 7.4) were performed during ischemia, 6 and 24 h after reperfusion.
After a survival time of 7 days after endothelin-induced middle cerebral artery occusion (eMCAO), animals were anesthetized by an intraperitonial injection of pentobarbital and perfusion-fixed transcardially with saline, followed by 4% paraformaldehyde in 0.1 M phosphate buffer saline, pH 7.4. Brains were then removed carefully, post-fixed in the same fixative for 2 h, and placed in a rodent brain matrix (rat, Activational Systems Inc., Scientific Instrumentation). 1-mm coronal brain slices were cut with a razor blade at 14 predetermined anterior-posterior levels. After cryoprotection in 30% sucrose, slices were rapidly frozen in isopentane and stored at −80° C. Four to five cryostat sections (30 μm) from each brain slice were cut in a cryo microtome and stained with toluidine blue.
The extent of cortical damage following ischemic injury was documented with microphotographic images from the Nissl-stained slices showing the anterior-posterior level according to the brain atlas of Paxinos and Watson (31). The volume of cortical infarct was determined by an operator blinded to the group composition.
The extent of the infarct area at each level was calculated by integrating of the area of damage at each stereotactic level and the distances between the various levels. Using a light microscope (Nikon, Eclipse TE 3000) equipped with a 4× objective, the image analysis was performed with a computer-assisted image analysis system (Lucia software, Version 4.2.1).
The data were statistically analyzed by non-paired Student's t tests. […]

T lymphocytes = test: Inhibition of proliferation of PHA-stimulated T lymphocytes (tritium thymidine incorporation); type: cell-based; conditions: Homo sapiens, T-lymphocyte, 1 μg/ml Phytohemagglutinine, 48 hours, test compounds 0.1-250 μM, read-out: T cells IC50
Procedure: (§1) Peripheral blood mononuclear cells (PBMC) from healthy human volunteers were freshly isolated by density gradient centrifugation. T lymphocytes (T cells, Tc) were isolated from PBMC fractions via nylon wool adherence. Cells were cultured in standard cell culture media and stimulated by addition of 1 μg/ml Phytohemagglutinine for 48 hours in 96 well flat-bottom microtitre plates. Test compounds were added at concentration ranges from 0.1-250 μM over the total assay period.
DNA synthesis of proliferating T cells was determined by incorporation of radio labelled tritium thymidine and subsequent radio detection.
(§2) Data output was based on raw data and calculation of relative proliferation response in relation to PHA-activated T cells in the absence of test compound (100% control).
(§3) The […] value of proliferation suppression was assessed by graphical evaluation.

[1] = test system: human peripheral blood mononuclear cells; test: Inhibition of proliferation of PHA-stimulated mononuclear cells (BrdU incorporation); type: cell-based; conditions: PBMC, 1 μg/ml Phytohemagglutinine, 48 hours, test compounds 0.1-250 μM, read-out: MNC IC50
Procedure: as §1
DNA synthesis of proliferating PBMC was assessed by incorporation of nucleotide analogue bromdesoxyuridine (BrdU) and subsequent detection of optical density (OD) at 450 nm.
as §2, §3

Structure (SMILES)	Infarct Volume (%) (Sprague-Dawley rats)	IC50 (T lymphocytes)	IC50 [1]
NC(CC(=O)NC1CCCC(NC(=O)C(O)C(N)Cc2ccccc2)C1)Cc1cc(F)ccc1F (stereo not drawn) [drawing 291]	64.2 ± 14.6 %	–	–
CC(C)(NC(=O)CC(N)Cc1ccccc1)C(C)(C)NC(=O)C(O)C(N)Cc1ccccc1 (stereo not drawn) [drawing 286]	70.7 ± 6.1 %	–	–
CCCCCCCCCCCCCC(=O)NC(CC(=O)NCC(C)(C)CNC(=O)C(O)C(Cc1ccccc1)NC(=O)CCCCCCCCCCCCC)Cc1cc(F)ccc1F (stereo not drawn) [drawing 289]	60.7 ± 17.1 %	–	–
CCCCCCCCCCCCCCCC(=O)OC(C(=O)NCC(C)(C)CNC(=O)CC(N)Cc1cc(F)ccc1F)C(N)Cc1ccccc1 (stereo not drawn) [drawing 288]	58.6 ± 19.7 %	–	–
CCCCCCCCCCCCCCCC(=O)NC(CC(=O)NCC(C)(C)CNC(=O)C(O)C(Cc1ccccc1)NC(=O)CCCCCCCCCCCCCCC)Cc1cc(F)ccc1F (stereo not drawn) [drawing 290]	75.6 ± 16.6%	–	–
NC(CC(=O)Nc1ccc(NC(=O)C(O)C(N)Cc2ccccc2)cc1)Cc1cc(F)ccc1F (stereo not drawn) [drawing 245]	–	14.6 µM	14.8 µM
NC(CC(=O)NC1CCCC(NC(=O)C(O)C(N)Cc2ccccc2)C1)Cc1cc(F)ccc1F (stereo not drawn) [drawing 269]	–	113 µM	200 µM
CC(C)(CCNC(=O)CC(N)Cc1cc(F)ccc1F)CNC(=O)C(O)C(N)Cc1ccccc1 (stereo not drawn) [drawing 242]	–	157 µM	63.3 µM
CC(C)(CNC(=O)CC(N)Cc1cc(F)ccc1F)CNC(=O)C(O)C(N)Cc1ccccc1 (stereo not drawn) [drawing 232]	–	≥ 200 µM	200 µM
NC(CC(=O)NCCCCNC(=O)C(O)C(N)Cc1ccccc1)Cc1cc(F)ccc1F (stereo not drawn) [drawing 287]	73.5 ± 5.7 %	–	–
NC(CC(=O)N1CCN(C(=O)CC(O)C(N)Cc2ccccc2)CC1)Cc1ccccc1 (stereo not drawn) [drawing 222]	–	157 µM	135 µM
C[C@@H]1CN(C(=O)CC(O)C(N)Cc2ccccc2)C[C@H](C)N1C(=O)CC(N)Cc1ccccc1 (stereo partly drawn) [drawing 225]	–	147 µM	84.5 µM
CC(C)(CNCC(N)Cc1cc(F)ccc1F)CNC(=O)C(O)C(N)Cc1ccccc1 (stereo not drawn) [drawing 276]	–	30.3 µM	30.6 µM
CC(C)(CNC(=O)CC(CN)Cc1ccccc1)CNC(=O)C(O)C(N)Cc1ccccc1 (stereo not drawn) [drawing 240]	–	60.7 µM	64.4 µM
CCCCCCCCCCCCCCCCNC(CC(=O)NCC(C)(C)CNC(=O)C(O)C(Cc1ccccc1)NCCCCCCCCCCCCCCCC)Cc1cc(F)ccc1F (stereo not drawn) [drawing 272]	–	11 µM	10 µM
CC(C)(CNC(=O)CC(N)Cc1cc(F)ccc1F)CNC(=O)C(O)C(N)Cc1ccc(-c2ccccc2)cc1 (stereo not drawn) [drawing 281]	–	98.5 µM	119 µM
NC(CNC(=O)c1cccc(NC(=O)C(O)C(N)Cc2ccc(-c3ccsc3)cc2)c1)Cc1cc(F)ccc1F (stereo not drawn) [drawing 284]	–	3.9 µM	4.7 µM
CCCCCCCC(=O)OC(C(=O)NCCCCNC(=O)CC(N)Cc1cc(F)ccc1F)C(N)Cc1ccccc1 (stereo not drawn) [drawing 256]	–	19 µM	10.6 µM
NC(CC(=O)N1CCN(C(=O)C(O)C(N)Cc2ccccc2)CC1)Cc1ccccc1 (stereo not drawn) [drawing 223]	–	157 µM	140 µM
CC(C)(CNC(=O)CC(N)Cc1cc(F)ccc1F)CNC(=O)C(O)C(N)Cc1ccc(-c2cccnc2)cc1 (stereo not drawn) [drawing 282]	–	64.9 µM	31.4 µM
CCCCCCCCCCCCCCCC(=O)OC(C(=O)NCCCCNC(=O)CC(N)Cc1cc(F)ccc1F)C(N)Cc1ccccc1 (stereo not drawn) [drawing 259]	–	4.1 µM	2.1 µM
CCCCCCCCCCCCCC(=O)OC(C(=O)NCC(C)(C)CNC(=O)CC(N)Cc1cc(F)ccc1F)C(N)Cc1ccccc1 (stereo not drawn) [drawing 252]	–	2 µM	1.9 µM
CC(C)(CNCC(N)Cc1cc(F)ccc1F)CNC(=O)C(O)C(N)Cc1ccccc1 (stereo not drawn) [drawing 292]	59.9 ± 16.1 %	–	–
CCCCCCCC(=O)OC(C(=O)NCC(C)(C)CNC(=O)CC(N)Cc1cc(F)ccc1F)C(N)Cc1ccccc1 (stereo not drawn) [drawing 247]	–	7.4 µM	5.8 µM
NC(CC(=O)NCCNC(=O)C(O)C(N)Cc1ccccc1)Cc1cc(F)ccc1F (stereo not drawn) [drawing 221]	–	≥ 200 µM	200 µM
CC(C)(CNC(=O)CC(N)Cc1cc(F)ccc1F)CNC(=O)C(OC(=O)CCCc1ccccc1)C(N)Cc1ccccc1 (stereo not drawn) [drawing 255]	–	3 µM	2.5 µM
